The text below walks through data of patent publication US9932637B2, “Genetic polymorphisms associated with cardiovascular disorders and drug response, methods of detection and uses thereof” (CELERA CORPORATION, priority 2003, dated 2018).

This test has as its system patients with prior myocardial infarction (CARE study). As to the kind of experiment: CARE: risk of cardiovascular disease events associated with pravastatin by CD6 or FCAR genotype (Tables 11, 12). The format is in vivo, human. The conditions noted are these: for RR (relative risk) of RMI associated with Pravastatin: recurrent MI during 5 years follow up; for OR of RMI associated with Pravastatin, Adjusted for Age, Smoking status, Gender / OR of RMI associated with Pravastatin, Adjusted for Age, Smoking status, Gender, hypertension, BMI, diabetes, baseline LDLD and HDL / OR of RMI associated with Pravastatin, Unadjusted: placebo group as reference. From the text: In order to identify genetic markers associated with acute coronary events (e.g. MI, stroke, unstable angina, congestive heart failure, etc.) or response to statin treatment for the prevention of coronary events, samples from the Cholesterol and Recurrent Events (CARE) study (a randomized multicentral double-blinded trial on secondary prevention of acute coronary events with pravastatin) (Sacks et al., 1991, Am. J. Cardiol. 68: 1436-1446) were genotyped. A well-documented myocardial infarction (MI) was one of the enrollment criteria for entry into the CARE study. Patients were enrolled in the CARE trial from 80 participating study centers. […] Patients were randomized to receive either 40 mg of pravastatin once daily or a matching placebo. The primary endpoint of the trial was death from coronary heart disease and the median duration of follow-up was 5.0 years (range, 4.0 to 6.2 years). […] Secondary endpoints of other related cardiovascular or metabolic disease events, and changes in clinical variables were also recorded in pravastatin-treated and placebo groups. All individuals included in the study had signed a written informed consent form and the study protocol was approved by the respective Institutional Review Boards (IRBs).
In both studies the individuals homozygous for the minor allele were statistically different from heterozygous and major allele homozygous individuals in the pravastatin treated group vs. the placebo treated group. This SNP was associated with a reduced risk of an adverse coronary event in the CARE and WOSCOPS studies with RR or OR of 0.13 and 0.23 respectively in the two studies. Therefore, SNPs identified as useful for predicting RMI may also be useful for predicting increased risk for developing primary MI.
Therefore, an allele found to be associated with risk for MI, RMI, stroke, or other adverse cardiovascular event, may also be useful for predicting responsiveness to statin treatment. SNPs associated with treatment response to pravastatin may also be predictive of responsiveness of an individual to other statins as a class.

[1] abbreviates: FCAR hCV7841642 genotype AA + AG.

Each structure is given as a SMILES string.

For `CC[C@H](C)C(=O)O[C@H]1C[C@H](O)C=C2C=C[C@H](C)[C@H](CC[C@@H](O)C[C@@H](O)CC(=O)O)[C@H]21` [pravastatin], for the setting “CD6 hCV2553030, homozygous for the minor allele”, the “RR or OR of adverse coronary event, pravastatin vs placebo” value worked out at 0.13. Also, the “RR (relative risk) of RMI associated with Pravastatin” value reads like this: (CD6 hCV2553030 genotype Het (TC)) 0.76; (CD6 hCV2553030 genotype Major hom (CC)) 0.8; (CD6 hCV2553030 genotype Minor hom (TT)) 0.13; (CD6 hCV2553030 recessive (TT + CC)ref) 0.78; (CD6 hCV2553030 recessive (TT)) 0.13. Besides, the “OR of RMI associated with Pravastatin, Adjusted for Age, Smoking status, Gender” value is recorded as 0.31 under setting [1] and 0.79 (FCAR hCV7841642 genotype GG). The “OR of RMI associated with Pravastatin, Adjusted for Age, Smoking status, Gender, hypertension, BMI, diabetes, baseline LDLD and HDL” value by setting is: under setting [1], 0.31; (FCAR hCV7841642 genotype GG) 0.79. Further, the “OR of RMI associated with Pravastatin, Unadjusted” value under setting [1] came to 0.32 and the “OR of RMI associated with Pravastatin, Unadjusted” value (FCAR hCV7841642 genotype GG) was found to be 0.81.
